Where only a bound is given, the exact number is not on record here.

These results are taken from a melting point compilation (Tetko et al.; mined from patent text by program, amines drawn as free bases though some values may be those of a salt).

A word on the melting point: it is the temperature of the solid-liquid transition.

`CC(C)Oc1cccc(C=C(C=O)C(C=O)=Cc2cccc(OC(C)C)c2)c1` yielded a melting point of 116 to 117 °C.

For the molecule `CCc1nc2c(C)cc(C)nc2n1Cc1ccc(C(c2ccccc2)C(Br)C(=O)O)cc1` (centres undefined), the melting point was in the range of 117 to 126 °C.

As to `CC(C)(O)[C@H](NC(=O)C(Cl)(Cl)Cl)c1ccccc1`, the melting point turned out to be 97 °C.

With `Cc1ccc(Cn2ccc(OCc3ccccc3)c(Br)c2=O)cc1`, the melting point was in the range of 150 to 151 °C.

Regarding `Cc1ccc(S(=O)(=O)Cc2ccc(C(O)(C(F)(F)F)C(F)(F)F)cc2)cc1`, the melting point was determined as 129 °C.

`O=C(NCCCn1ccnc1)C(c1ccccc1)c1ccccc1` registered a melting point of 136 to 138 °C.

The molecule `NC(=O)[C@H]1CCCCCC[C@H](CS)C(=O)N1` (relative stereo) gave a melting point of 185 to 192 °C.

For the molecule `Cc1c(C)c2c(c(C)c1NC(=O)c1ccc(F)cc1)C(c1ccc(F)cc1)C(C)(C)O2` (centres undefined), the melting point fell in the range of 140 to 142 °C.

For `CCn1nc(C#N)c(Br)c1CC(C)C`, the melting point lay in the range of 50 to 51 °C.

In turn, `Cc1cc(-c2cc(C(F)F)n3ncc(C(=O)Nc4nc(C)c(S(N)(=O)=O)s4)c3n2)ccc1C(F)(F)F` displayed a melting point of 307 °C.

Regarding `CCCCCOC(=O)n1c(N)nc(C#N)c1C#N`, the melting point fell in the range of 166 to 169 °C.

Molecule `NCCNCC(O)COc1ccccc1C(N)=O` (centres undefined) returned a melting point of 91 to 93 °C.

`Cn1c2c(c3ccccc31)SCCC2(C)C=O` (centres undefined) had a melting point of 119 to 123 °C.

As for `CN(C)c1cc(Oc2cccc(C(F)(F)F)c2)nc(C(=O)Nc2ccccc2)c1`, the melting point fell in the range of 135 to 138 °C.

`CC(C)(C)C(=O)Nc1cc(Cl)ccn1` displayed a melting point of 86 to 87 °C.

Molecule `CC(=O)OC1CSC(Oc2cc(-c3ccc(F)nc3)cnc2F)C(OC(C)=O)C1OC(C)=O` (centres undefined) returned a melting point of 135 to 136 °C.

As to `CSCC[C@H](NC(=O)c1cc(NC(Cn2ccnc2)c2ccc(F)cc2)ccc1Cc1ccc(F)cc1)C(=O)O` (some centres undefined), the melting point lay in the range of 130 to 135 °C.

In turn, `CS(=O)(=O)C(=C1CN(C(c2ccccc2)c2ccccc2)C1)c1ccccc1O` yielded a melting point of 196 °C.

The molecule `CCC1(CC)OC(c2ccc(S(C)(=O)=O)cc2)=C(c2cccc(Cl)c2)C1=O` yielded a melting point of 131 to 132 °C.

`CN(C)C(=O)c1nc2n(n1)-c1ccc([N+](=O)[O-])cc1C(c1ccccc1)=NC2` showed a melting point of 209 to 211 °C.

On to `COc1c(C)c(C)c(OC)c(CO)c1C`, for which the melting point is 121 to 122 °C.

With `O=C(NCCN1CCC(O)(c2ccc(Cl)cc2)CC1)c1ccc(F)cc1[N+](=O)[O-]`, the melting point came out at 144 °C.

Regarding `CCCN1C(=O)N2C(=NCC2c2ccccc2)c2[nH]cnc21` (centres undefined), the melting point is 258 to 264 °C.

The molecule `CC(C)(C)OC(=O)C(NN)C(=O)O` (centres undefined) yielded a melting point of 144 to 146 °C.

With `CCCCc1c(C(=O)O)cc(Cl)cc1[N+](=O)[O-]`, the melting point lay in the range of 218 to 220 °C.

As for `CCOC(=O)CS(=O)(=O)Nc1c(C(C)C)cccc1C(C)C`, the melting point was 114 to 116 °C.

On to `CCOC(=O)c1cc2c3n(ccc-2n1)C(Br)C=N3` (centres undefined), for which the melting point was 280 to 282 °C.

As to `CCOCn1c(Cc2ccccc2)c(C(C)C)c(=O)[nH]c1=O`, the melting point amounted to 111 °C.

In the case of `c1ccc2c(c1)CNc1ccccc1C2`, the melting point was 117 to 122 °C.

Take `CCCCCCCCCCCCCCCCCC(=O)NC(=O)OCc1nc(C(C)C)c(Sc2cc(Cl)cc(Cl)c2)n1Cc1ccncc1`: the melting point lay in the range of 73 to 77 °C.

`COc1cc2c(cc1OC)C(=O)C(c1ccc3c(c1)OCO3)CC2` (centres undefined): the melting point lay in the range of 168 to 170 °C.

In turn, `CCOC(=O)C(Cc1ccccc1)C(=O)Nc1ccc(CP(=O)(OCC)OCC)cc1` (centres undefined) displayed a melting point of 115 to 116 °C.

The molecule `O=C(O)CN1C[C@@H](Cc2c[nH]c3ccccc23)N(C(=O)c2cc(C(F)(F)F)cc(C(F)(F)F)c2)CC1=O` returned a melting point of over 220 °C.

On to `Cc1nc(-c2ccc(F)cc2)n(-c2ccc(S(N)(=O)=O)cn2)n1`, for which the melting point lay in the range of 221 to 222 °C.

In turn, `O=[N+]([O-])c1ccc2c(c1)N(C1CC1)CNS2(=O)=O` yielded a melting point of 166 to 169 °C.

Regarding `Cc1oc2c(C)c(C)c(NCc3ccc(F)cc3)c(C)c2c1-c1ccc(F)cc1`, the melting point lay within 107 to 109 °C.

Molecule `CCCc1nc2c(N)nc3cc(OCc4cccnc4)ccc3c2s1` showed a melting point of 167 to 169 °C.

In the case of `COc1cc(-n2cnc3cc(-c4ccc(Cl)cc4)sc3c2=O)ccc1OC[C@H](OP(=O)(O)O)C1CC1`, the melting point came out at 166 °C.

As to `COc1ccc(NC(=O)NC/C=C2\CCCc3ccc(OC)cc32)cc1`, the melting point was 168 to 170 °C.

As for `CCCC(c1ccc(C)cc1)n1cncc1C(=O)OC` (centres undefined), the melting point was 141 to 143 °C.

Molecule `CCCCCc1nc(NC(=N)N)sc1-c1cccc([N+](=O)[O-])c1` displayed a melting point of 135 to 137 °C.

For `CN1c2ccccc2Sc2cc(C=Cc3ccc(-c4ccc(C=Cc5ccc6c(c5)Sc5ccccc5N6C)cc4)cc3)ccc21`, the melting point stood at 380 °C.

As to `CNC(=O)Oc1ccc(NC(=O)C(F)(F)Cl)c(C)c1`, the melting point was in the range of 156 to 158 °C.

For `O=C(Nc1cc(-c2ccnc3c(C(=O)c4cccs4)cnn23)ccc1F)c1ccccc1Cl`, the melting point was 166 to 168 °C.

`O=c1oc2c(c(O)c1C(c1ccccc1)C1CC1)CCCCCC2CC1CCCCO1` (centres undefined): the melting point fell in the range of 88 to 93 °C.

Molecule `OCC1OC(n2c(Cl)nc3cc(Cl)c(Br)cc32)C(O)C1O` (centres undefined) gave a melting point of 158 to 159 °C.

Regarding `COC(=O)c1cc(S(C)=O)ccc1OC` (centres undefined), the melting point was 64 to 66 °C.

On to `O=C(Nc1ccc(O)c(C(=O)O)c1)OCc1ccccc1`, for which the melting point was 184 to 186 °C.

Molecule `OC1CC(c2ccc(-c3ccc(OCc4ccc(Br)cc4)cc3)cc2)Cc2ccccc21` (centres undefined) showed a melting point of 178 °C.

`CS(=O)(=O)c1cccc(C(=O)Nc2cc(C(=O)NCc3ccccc3)ccn2)c1` came in with a melting point of 170 to 171 °C.

`COc1cc2c(c(OC)c1/C=C/c1ccc(COC(C)=O)cc1)C(C)(C)CCC2(C)C` registered a melting point of 73 to 74 °C.

With `CCC1(c2cccc(OCc3ccccc3)c2)COC(C)(C)O1` (centres undefined), the melting point lay in the range of 51 to 53 °C.

Regarding `COc1c(C)cnc(CS(=O)c2nc3cc(C(F)(F)F)ccc3[nH]2)c1C` (centres undefined), the melting point was 163 °C.

`CNC(=O)CC(O)(c1ccc(Br)cc1)c1cccnc1` (centres undefined) displayed a melting point of 188 to 191 °C.

For `NC(=O)c1c(Cl)c(-c2ccccc2)n2c1CN(S(=O)(=O)c1ccc(Cl)cc1)CC2`, the melting point fell in the range of 123 to 125 °C.

Molecule `CC(C)(C)c1cc(C(=O)c2ccc[nH]2)cc(C(C)(C)C)c1O` displayed a melting point of 146 °C.

Regarding `COc1ccc2nc(C3=CCN(Cc4ccc(Cl)cc4)CC3)[nH]c2c1`, the melting point was 203 to 205 °C.

Take `O=c1c2ccccc2nc(-c2cc(-c3ccccc3)c(N3CCOCC3)s2)n1-c1ccccc1Cl`: the melting point lay in the range of 160 to 161 °C.

Molecule `CCN(CC)C(=O)C(C#N)=Cc1cc(O)c(O)c([N+](=O)[O-])c1` gave a melting point of 156 to 160 °C.

`CC(=O)N1CCC(Br)(C(=O)c2ccc(F)cc2)CC1` registered a melting point of 156 to 159 °C.

On to `CCCCn1nc(SCCCCCC(=O)O)c(C(=O)O)c1Cc1cc2c(cc1Cl)OCO2`, for which the melting point came out at 70 °C.

The molecule `CCOC(=O)C(=O)c1cccc(NC=O)n1` had a melting point of 124 to 126 °C.

In the case of `CC(C)(C)OC(=O)NCCc1c[nH]c2ccc(CCO)cc12`, the melting point lay in the range of 204 to 206 °C.

As to `COc1ccc(OCc2ccccc2)cc1CC#N`, the melting point is 63 to 65 °C.

For `N=C(N)NCCc1ccc(OCCC2Oc3ccccc3N(Cc3cccc4ccccc34)C2=O)cc1` (centres undefined), the melting point lay in the range of 75 to 80 °C.

`O=C(NCCc1cccc2ccc(OC(c3ccccc3)c3ccccc3)cc12)C1CC1` displayed a melting point of 109 to 111 °C.

`O=C(O)CCN1C(=O)c2cccc(NC(=O)c3ccc(Cl)s3)c2C1=O` registered a melting point of 194 °C.

The molecule `Cc1nn(C)c(NN)c1[N+](=O)[O-]` returned a melting point of 177 to 179 °C.

For the molecule `c1ccc2c(c1)Cc1ccncc1N1OC(CN3CCOCC3)CC21` (centres undefined), the melting point came out at 46 °C.

`O=C1CC(C(=O)O)NN1` (centres undefined) yielded a melting point of 188 to 190 °C.

`Cc1ccccc1OCC(O)CN(CCOc1ncccc1C(N)=O)Cc1ccccc1` (centres undefined) displayed a melting point of 109 to 112 °C.

As for `COC(=O)C1=C(C)NC(C(C)O)=C(C(=O)OC)C1c1ccccc1Cl` (centres undefined), the melting point is 145 to 147 °C.

As for `CS(=O)(=O)c1cccnc1S(C)(=O)=O`, the melting point is 175 to 176 °C.

As to `O=C1OC(=O)c2c(Sc3ccccc3)c(Sc3ccccc3)c(Sc3ccccc3)c(Sc3ccccc3)c21`, the melting point lay within 141 to 142 °C.

`Cc1cc(C)c2c(c1)N[C@@H](C(=O)O)[C@@H](C)C2=O` (relative stereo) had a melting point of 156 to 157 °C.

Take `Cc1ccc(N=C(N(Cc2ccccc2)C2CCCCC2)N(Cc2ccccc2)C2CCCCC2)cc1`: the melting point lay within 128 to 130 °C.

`Cn1ccnc1Sc1ccc(Nc2c(C#N)cnc3cc(/C=C/CN4CCOCC4)ccc23)cc1Cl` registered a melting point of 235 to 240 °C.

The molecule `N#Cc1cnc2sc(-c3ccccc3)cc2c1-c1ccc2[nH]ccc2c1` returned a melting point of over 245 °C.

In turn, `Cc1cccc(OC2CN(C(N)=O)C2)c1` came in with a melting point of 167 to 168 °C.

Regarding `COC(=O)N(O)c1cccnc1Oc1ccccc1`, the melting point was found to be 140 °C.

For `COc1ccc2[nH]c(C(=NO)c3ccccc3)cc2c1`, the melting point was in the range of 150 to 152 °C.

Take `O=[N+]([O-])C=C(Cl)SCCCNS(=O)(=O)c1ccccc1`: the melting point fell in the range of 105 to 106 °C.

In the case of `O=C(O)CNC(=O)Cc1ccc(Cl)cc1S`, the melting point lay in the range of 148 to 149 °C.

For the molecule `CC(O)=C1C(=O)CC(c2cc(Cl)sc2Cl)CC1=O` (centres undefined), the melting point was in the range of 107 to 108 °C.

Consider `COc1ccc([C@]2(C)C=Cc3cc(OC)ccc3[C@H]2C=O)cc1` (relative stereo), for which the melting point was 127 °C.

As to `O=C(O)c1ccc(NCCCCOc2ccccc2)cc1`, the melting point was in the range of 153 to 155 °C.

As to `CN1CCN(c2cncc(Cl)n2)CC1=O`, the melting point fell in the range of 122 to 123 °C.

In the case of `CCOCCc1ccc(OCC=NO)c(C)c1C`, the melting point fell in the range of 102 to 105 °C.

Take `CC(C)P1(=O)c2ccccc2CN1c1ccc(Cl)cc1` (centres undefined): the melting point was in the range of 172 to 174 °C.
